Counter-ions that a name gives are not always drawn.
Columns and labels:
[1] = test system: pseudotyped EBOV virus (pHIV-EBOVGP-Fluc); assay type: cell-based, Ebola virus (EBOV); details: for IC50: read-out: Anti-EBOV IC50
[2] = test system: human embryonic kidney (HEK) 293 T cells
[3] = test system: pseudotyped Vesicular Stomatitis Virus (pHIV-VSVGP-Fluc); assay type: cell-based, Vesicular Stomatitis Virus (VSV); details: read-out: Anti-VSV IC50
[4] = test system: pHIV-MARVGP-Fluc virus; design: species or system BALB/c mice; details: mouse, ip
[5] = in vitro; details: human

| Compound | SI [1] | IC50 [1] [µM] | CC50 [2] [µM] | IC50 [3] [µM] | reduction (bioluminescence), in vivo anti-MARV [4] | CC50 [5] [µM] |
| --- | --- | --- | --- | --- | --- | --- |
| COC(=O)CCCC1C2CCCN3CCCC(CN1Cc1ccc(Cl)c(Cl)c1)C23.Cl.Cl (stereo not drawn) [4a, methyl 12N-3′,4′-dichlorobenzyl sophoridinate dihydrochloride] | 8.28 | 2.68 | 22.2 | 7.52 |  |  |
| COC(=O)CCC[C@@H]1[C@H]2CCCN3CCC[C@H](CN1C(=O)c1ccc(Cl)cc1)[C@@H]23 [4b, Methyl 12N-p-chlorobenzoyl sophoridinate] | 5.12 | 39.1 | 200 | > 200 |  |  |
| COC(=O)CCCC1C2CCCN3CCCC(CN1S(=O)(=O)c1ccc(Cl)cc1)C23 (stereo not drawn) [4c, Methyl 12N-p-chlorobenzenesulfonyl sophoridinate] | >7.59 | 2.9 | > 22 | > 22 |  |  |
| O=C(O)CCCC1C2CCCN3CCCC(CN1C(=O)c1ccc(Cl)cc1)C23 (stereo not drawn) [5b, 12N-p-Chlorobenzoyl sophoridinic acid] |  | > 200 | > 200 | > 200 |  |  |
| O=C(O)CCCC1C2CCCN3CCCC(CN1S(=O)(=O)c1ccc(Cl)cc1)C23 (stereo not drawn) [5c, 12N-p-Chlorobenzenesulfonyl sophoridinic acid] | 17.5 | 11.4 |  | > 200 |  |  |
| COC(=O)CCCC1C2CCCN3CCCC(CN1Cc1ccc(Cl)cc1)C23.Cl.Cl (stereo not drawn) [7a, Methyl 12N-p-chlorobenzyl matrinate dihydrochloride] | 7.87 | 25.4 | 200 | 188 |  |  |
| O=C(O)CCC[C@@H]1[C@H]2CCCN3CCC[C@@H](CN1Cc1ccc(Cl)cc1)[C@@H]23 [8a, 12N-p-Chlorobenzyl matrinic acid dihydrochloride] |  | > 200 | 200 | > 200 |  |  |
| COC(=O)CC1C2CCCN3CCCC(CN1S(=O)(=O)c1ccc(Cl)cc1)C23.Cl (stereo not drawn) [10c, Methyl 12N-p-chlorobenzesulfonyl matrinic acetate hydrochloride] | >7.46 | 26.8 | > 200 | > 200 |  |  |
| COC(=O)CC1C2CCCN3CCCC(CN1Cc1ccc(Cl)c(Cl)c1)C23.Cl.Cl (stereo not drawn) [10d, Methyl 12N-3′,4′-dichlorobenzyl matrinic acetate dihydrochloride] | 15.3 | 10 | 153 | 123 |  |  |
| O=C(O)CC1C2CCCN3CCCC(CN1Cc1ccc(Cl)cc1)C23 (stereo not drawn) [11a, 12N-p-Chlorobenzyl matrinic acetic acid] |  | > 200 | > 200 | > 200 |  |  |
| O=C(O)CC1C2CCCN3CCCC(CN1C(=O)c1ccc(Cl)cc1)C23 (stereo not drawn) [11b, 12N-p-Chlorobenzoyl matrinic acetic acid] |  | > 200 | > 200 | > 200 |  |  |
| O=C(O)CC1C2CCCN3CCCC(CN1CCCc1cc(Cl)cc(Cl)c1)C23 (stereo not drawn) [15f, 12N-3′,5′-Dichlorohydrocinnamyl matrinic acetic acid] |  |  | 83.3 |  |  |  |
| CN[C@H]1CC[C@@H](c2ccc(Cl)c(Cl)c2)c2ccccc21 [Sertraline, sertraline] |  |  |  |  | no activity at all | 29.2 |

— publication PMC6089848 (Acta Pharmaceutica Sinica. B, 2018)
